Data published in paper PMC9198979, “Polymeric Nanotubes as Drug Delivery Vectors—Comparison of Covalently and Supramolecularly Assembled Constructs” (Biomacromolecules, 2022).

Assay: In vivo pharmacokinetics of 14C-radiolabelled compounds after IV dosing (plasma and urine radioactivity)
Parameters: species or system male Sprague Dawley rats
Conditions: rat
Procedure: All animal experimental protocols were approved by the Monash Institute of Pharmaceutical Sciences Animal Ethics Committee, Monash University, Parkville, VIC, Australia. Male Sprague Dawley rats (250–350 g) were used. Animals were maintained on a 12 h light/dark cycle at all times and after transport were acclimatized for 7 days at the facility prior to in vivo studies. […] Urine samples were collected at the 24 h timepoint, and a 50 μL of the sample was transferred to a vial, 4 mL of Ultima Gold added and counted using the scintillator. A blank urine sample prior to dosage was also collected and analyzed to account for background radiation. The pharmacokinetic parameters were determined using non-compartmental analysis with Excel software using the PK Solver add-in (NCA IV Bolus model). […] AUC0-t, elimination half-life (t1/2), volume of distribution at steady state (Vd ss), and clearance rate (Cl) were calculated with this approach. For the linear compound, the 1440 min timepoint was omitted from parameter fitting due to the very low radioactivity for this measurement. The ^14C-radiolabeled compounds were injected intravenously into male Sprague-Dawley rats at a nominal dose of radioactivity (1 μCi, varying 0.82–2.78 mg dose of the sample) and blood samples taken over the course of 24 h to monitor the plasma concentration time profiles.

Row | Cl (clearance rate) [mL h^–1] | Substance
1 | 0.342 ± 0.102 | (PNAM50-co-NAS2.5)140 [BB]
2 | 16.9 ± 0.91 | PNAM100-co-NAS5 [linear]
